Series [1] has as its system unfractionated human bone marrow cells. As to the kind of experiment: Toxicity in normal bone marrow cells (PI and annexin V, flow cytometry). To be noted: 5-20 μg/ml, 24 to 48 h. The series is classed as cell-based. On the procedure:
The RPMI-8226 cell line was supplied by W. Dalton (Univ. Arizona). U266 and H929 cell lines were obtained from the American Type Culture Collection (Rockville, Md.). Cell lines were grown in RPMI 1640 (Gibco, Grand Island, N.Y.) supplemented with 5% fetal bovine serum (Hyclone, Logan, Utah). Normal bone marrow samples were obtained from allogeneic transplant donors at the Fred Hutchison Cancer Research Center, Seattle, Wash., with appropriate patient consent and Internal Review Board approval. Primary cells were maintained in Iscove's medium (Gibco) supplemented with 10% bovine calf serum, 100 ng/ml stem cell factor (Amgen, Thousand Oaks, Calif.), and 50 ng/ml interleukin-3 (Biosource, Camarillo, Calif.).
Cell survival was assayed by exclusion of propidium iodide (PI; 10 μg/ml) by unfixed cells. Annexin V-FITC (Pharmingen) or 3, 3′-dihexyloxacarbocyanine iodide (DiOC6(3); Molecular Probes) staining was analyzed together with PI to discriminate early apoptotic cells. Apoptotic cells were also measured as sub-G1 events among ethanol-fixed cells stained with 10 μg/ml PI. All cell samples were analyzed using a benchtop FACSCalibur™ (Becton Dickinson, San Jose, Calif.). Flow data were analyzed using MultiCycle AV software (Phoenix Flow Systems). For intracellular pH measurements, cell pellets were washed once and resuspended in 2 ml of HEPES-buffered medium (no phenol red and no serum). […]
(In flow cytometry, cells or beads pass a laser one at a time.)

A further series deals with RPMI-8226 cells. As to the kind of experiment: Metabolic studies: glucose depletion from media and intracellular pH. The class given is cell-based, human. Here is the method:
Cell survival was assayed by exclusion of propidium iodide (PI; 10 μg/ml) by unfixed cells. Annexin V-FITC (Pharmingen) or 3, 3′-dihexyloxacarbocyanine iodide (DiOC6(3); Molecular Probes) staining was analyzed together with PI to discriminate early apoptotic cells. Apoptotic cells were also measured as sub-G1 events among ethanol-fixed cells stained with 10 μg/ml PI. All cell samples were analyzed using a benchtop FACSCalibur™ (Becton Dickinson, San Jose, Calif.). Flow data were analyzed using MultiCycle AV software (Phoenix Flow Systems). For intracellular pH measurements, cell pellets were washed once and resuspended in 2 ml of HEPES-buffered medium (no phenol red and no serum). Carboxy-SNARF-1-AM (Molecular Probes, 1 mM stock in DMSO, stored at −20° C.) was added to a final concentration of 10 μM, and the cells were incubated for 30 min at 37° C. Following incubation with SNARF, cells were sedimented and the pellets were held on ice. Immediately before analysis, pellets were resuspended in […] (HBSS; experimental buffer) or high-[K+] buffer containing nigericin (calibration samples).
The analysis by flow cytometry (Becton Dickinson FACScan™) was done with excitation at 488 nm, and emission at 585 and 640 nm (corresponding to the H^+-bound and—free forms of carboxy-SNARF-1-AM, respectively). […]

Series [2] can be described thus: Binding to plasma proteins (ultrafiltration). The series is classed as in vitro ADME, mouse. The following applies: mouse, plasma, presence of NaF+EDTA, read-out: Protein binding, Mouse. Here is the method: Solutions of 2-OMe antimycin A3 were diluted with plasma (dog or human) containing NaF+EDTA to final concentrations of 1.0 or 0.2 μg/ml. Controls were diluted with water to the same final concentrations. These preparations were incubated at 37° C. for 20 min, at which time portions were taken and placed in the sample reservoirs of Amicon Centrifree® ultrafiltration systems (Millipore Co., Bedford, Mass.). At 37° C., the filter systems were centrifuged until the reservoirs were dry. From each filtrate, portions were taken for analysis by HPLC. The amounts present were designated as “free drug” (F). The concentrations of the unfiltered solutions were also determined by triplicate analyses. This amount represented the “total drug” concentration (T). The percentage of 2-OMe antimycin A3 bound to plasma proteins was calculated by the following formula: % bound=((T−F)/T)×100

The subject of series [3] is mitochondria from TABX2S cells. Briefly: Rhodamine 123 retention assay. Details: species or system murine. The following applies: five minutes after adding. On the procedure: Rh-123 is a cationic lipid-soluble fluorescent dye that accumulates in mitochondria in proportion to the mitochondrial membrane potential. Mitochondria were isolated from TABX2S cells (over-expressing Bcl-xL) and from control cells, prepared as described in Example 2. The isolated mitochondria were loaded with Rh-123 by incubating with 10 μM Rh-123 for 30 minutes, washed and resuspended in buffer. […] Less than 40% of Rh-123 was retained in antimycin A-treated TABX2S mitochondria, compared with greater than 80% retained in control mitochondria.

Regarding 2-methoxy antimycin A [2-OMeA], in series [1], the “sensitivity of primary lymphoid and myeloid bone marrow cell subpopulations” value was “insensitive”. Further, the “glycolysis (depletion of glucose from culture media, reduction in intracellular pH)” value with RPMI-8226 cells is reported as “stimulated glycolysis”.

On to `CCCC[C@H]1C(=O)OC(C)[C@H](NC(=O)c2cccc(NC=O)c2OC)C(=O)O[C@@H](C)C1OC(=O)CC(C)C` (stereo partly shown) [2-OMeA3, Antimycin A3 methyl ether], for which the fraction unbound at 20 min, 1000 ng/ml in series [2] is less than 0.01.

For antimycin A, in series [3], the Rh-123 retained entry is reported as “Less than 40%”.

Source of the values: patent publication US20050239873A1 (priority 1999, published 2005).
